This assay concerns the target USP7 (Homo sapiens, UniProt Q93009). Kind of assay: HA-Ub-VS labeling of active DUBs in HCT116 cell lysates. The format is biochemical. Particulars: for HA-Ub-VS-USP7 protein level: different doses (100 μM to 3 μM). The arrangement: endogenous in cells; host or cells: HCT116 (inducible USP7 shRNA line) cell lysate. The source says:
The C-terminally modified vinyl sulfone derivative of ubiquitin, UbVS, was clearly helpful for a direct visualization of active DUBs in cells. This tool, which binds covalently to the cysteine active site of deubiquitinating enzymes, was successfully applied to discover and characterize novel ubiquitin/ubiquitin-like proteases and to profile active deubiquitinating enzymes in normal, virus-infected, and malignant cells (Borodovsky et al., Chem Biol 2002, 9, 1149-1159, Hemelaar et al., Mol Cell Biol 2004, 24, 84-95, Ovaa et al., Proc Natl Acad Sci USA 2004 101, 2253-2258).
The HA-Ub-VS probe (Hemagglutin tag-Ubiquitin-Vinyl Sulfone) was used in this study to directly visualize the activity of all deubiquitinating enzymes from cell lysates. This tool was used to evaluate the activity/specificity of our small molecule compounds on USP7 relative to all deubiquitinating enzymes active in physiological conditions.
Inducible USP7 shRNA HCT116 cells (previously treated with or without Doxycycline (2 μg/ml) for 4 days) as well as HEK293 cells were harvested and lysed on ice with a non denaturating buffer containing Tris pH 7.4, 50 mM; NaCl, 150 mM; MgCl2, 5 mM; EDTA, 0.5 mM; DTT, 2 mM; ATP, 2 mM; NP40, 0.5% and glycerol, 10%. Samples were incubated at 4° C. for 1 hour and clarified. Proteins were then quantified by Bradford method (Bio-Rad Protein Assay). 25 μg of proteins from native cell lysates were treated with compounds of examples 14 and 5 (from 100 μM to 3 μM) or with NEM (N-Ethylmaleimide, a thiol-reactive compound, 5 mM) for 2 hours at room temperature. The ubiquitin labeling reaction was initiated by the addition of HA-Ub-VS (8 μg/ml) in labeling buffer (Tris pH 7.6, 50 mM; MgCl2, 5 mM; EDTA, 0.5 mM; DTT, 2 mM; ATP, 2 mM; sucrose, 250 mM) and incubated at room temperature for 30 min. Samples were next heated at 100° C. for 10 minutes and briefly sonicated. They were resolved by SDS-polyacrylamide gel electrophoresis (SDS-PAGE), transferred to a nitrocellulose membrane and probed with antibodies against USP7 (Bethyl Lab, A300-034A), HA (BabCO, MMS-101P), and actin (Sigma, A2066). Horseradish peroxidase (HRP)-conjugated anti-mouse (Jackson Laboratories, 115-035-003) or HRP-conjugated anti-rabbit (Cell Signaling, 7074) antibodies were used as secondary antibodies. Signals were detected by enhanced chemiluminescence (ECL; Amersham) according to the reagent manufacturer's instructions.

Chain of USP7 (Q93009 whole entry): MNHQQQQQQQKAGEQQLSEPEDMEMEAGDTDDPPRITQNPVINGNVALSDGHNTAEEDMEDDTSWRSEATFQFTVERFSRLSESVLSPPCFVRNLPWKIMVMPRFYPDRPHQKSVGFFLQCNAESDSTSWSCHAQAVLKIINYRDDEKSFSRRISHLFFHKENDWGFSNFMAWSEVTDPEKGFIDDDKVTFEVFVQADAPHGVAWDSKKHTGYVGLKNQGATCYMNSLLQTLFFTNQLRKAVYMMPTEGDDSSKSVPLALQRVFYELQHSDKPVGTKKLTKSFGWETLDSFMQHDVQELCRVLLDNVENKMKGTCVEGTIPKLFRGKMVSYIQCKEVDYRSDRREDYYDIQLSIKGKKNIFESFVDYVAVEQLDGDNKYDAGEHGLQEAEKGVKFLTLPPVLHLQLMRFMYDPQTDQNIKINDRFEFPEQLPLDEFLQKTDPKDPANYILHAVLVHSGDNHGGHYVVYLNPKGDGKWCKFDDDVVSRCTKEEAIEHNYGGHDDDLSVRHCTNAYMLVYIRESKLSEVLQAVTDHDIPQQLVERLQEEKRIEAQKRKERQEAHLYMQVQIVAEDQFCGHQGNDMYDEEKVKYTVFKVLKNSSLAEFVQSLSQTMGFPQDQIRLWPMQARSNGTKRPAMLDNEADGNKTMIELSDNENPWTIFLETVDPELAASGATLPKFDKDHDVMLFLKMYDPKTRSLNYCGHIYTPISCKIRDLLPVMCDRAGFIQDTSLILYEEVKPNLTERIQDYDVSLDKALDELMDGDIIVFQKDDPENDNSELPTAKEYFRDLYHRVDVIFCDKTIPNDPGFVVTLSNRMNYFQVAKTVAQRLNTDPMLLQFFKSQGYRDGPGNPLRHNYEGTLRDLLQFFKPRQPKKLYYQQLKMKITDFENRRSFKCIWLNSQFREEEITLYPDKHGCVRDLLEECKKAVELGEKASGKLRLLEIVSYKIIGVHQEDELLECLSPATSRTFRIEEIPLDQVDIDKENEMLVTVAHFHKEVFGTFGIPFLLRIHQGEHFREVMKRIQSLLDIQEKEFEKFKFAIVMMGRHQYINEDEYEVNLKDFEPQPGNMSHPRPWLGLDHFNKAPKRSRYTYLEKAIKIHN

`CCN(CCCNC(=O)c1ccc2c(Cl)c3c(nc2c1)CCCC3)Cc1ccccc1` [Example 5, 9-Chloro-5,6,7,8-tetrahydro-acridine-3-carboxylic acid [3-(benzyl-ethyl-amino)-propyl]-amide]: the HA-Ub-VS-USP7 protein level entry was “specific and dose-dependent decrease”.
For `CN(CCCNC(=O)c1ccc2c(Cl)c3c(nc2c1)CCCC3)Cc1ccccc1` [Example 14, 9-Chloro-5,6,7,8-tetrahydro-acridine-3-carboxylic acid [3-(benzyl-methyl-amino)-propyl]-amide], the HA-Ub-VS-USP7 protein level entry was “specific and dose-dependent decrease”. Where the note is “fixed dose 50 μM, anti-HA immunoblot”, the “HA-Ub-VS labeled DUB bands after treatment (HA-Ub-VS-USP7 band)” value was “only one band was decreased”.

The record behind these values is US20110177105A1, “Novel Selective Inhibitors of Ubiquitin Specific Protease 7, the Pharmaceutical Compositions Thereof and Their Therapeutic Applications” (priority 2010, published 2011).
